The values below come from paper PMC7013932, “Disulfide-Linked Peptides for Blocking BTLA/HVEM Binding” (International Journal of Molecular Sciences, 2020).

Broadly, the Kd is a measure of binding affinity in units of concentration.

Data set [1] addresses T1, BTLA protein (Homo sapiens, UniProt Q7Z6A9).
T1 construct: purchased Novoprotein C563
Description: SPR analysis of BTLA protein binding to immobilized HVEM (14–39) peptide. How it is done:
To analyze the binding properties between BTLA and the HVEM (14–39) peptide, we performed the affinity measurements using SPR. Thus, the peptide extended by five glycine residues at the N-terminus and biotin was first immobilized on a streptavidin matrix-coated sensor chip. The BTLA protein was then injected at different concentrations (0, 1, 3, 5, 10, and 15 µM). […] Moreover, the SPR results reveal that the peptide binds approximately 8 times slower (k1 = 76400), and dissociates 36 times slower (k−1 = 0.00332) than does the HVEM protein (k1 = 620000 and k−1 = 0.12), which agrees with the theoretical results of simulations with crystal-based structure and NMR-based structure of the peptide (Table 1).
Figure 6 SPR analysis of the BTLA protein binding to the HVEM (14–39) peptide. Sensorgrams show the results of SPR analysis conducted on the binding of the indicated concentrations of BTLA protein (C = 0, 1, 3, 5, 10, and 15 μM) in HBS-EP buffer.
Recombinant human BTLA protein was purchased from Novoprotein (company product code: C563). Recombinant human BTLA-Fc, HVEM-Fc and anti-human BTLA (#7.1)-blocking mAb were a generous gift from Prof. D. Olive (Inserm U1068/CNRS U7258, Marseille, France). Anti-HVEM mAb was biotinylated according to the manufacturer’s instructions (Biotin Labeling Kit-NH2, Abnova, #KA0003).
Standard SPR analyses were performed using a Biacore T200 (GE Healthcare) instrument essentially as described in the manufacturer’s manual. BTLA protein binding was studied using the HVEM(14–39) peptide elongated by five glycine residues at the N-terminus and immobilized on a streptavidin matrix-coated Sensor Chip SA (GE Healthcare). The peptide was immobilized on the sensor surface to yield a final value of ~1100 RU. HBS-EP (150 mM NaCl, 10 mM HEPES pH 7.4, 3 mM EDTA, 0.05% Surfactant P20) was used as the running buffer. In all the experiments, the buffer flow was set to 30 µL/min, with all injections at a volume of 120 µL. The sensorchip surface was regenerated with 0.5 M NaCl and 10 mM glycine. The data obtained were analyzed using Biacore T200 Evaluation Software 3.1 (Biacore, GE Healthcare, USA). The results are presented as sensorgrams obtained after subtraction of the background response signal from control experiments with buffer injections.
On the technique in general: Surface plasmon resonance follows binding to a sensor surface in real time, without labels.

Data set [2] deals with peripheral blood mononuclear cells (PBMC). The format is cell-based, human. To be noted: PBMC from 3 healthy donors; peptide 0.1 and 5 mg/ml; 6 and 24 h, 37 °C; trypan blue counting and DAPI flow cytometry. As to the method: (§1) Then, we measured the cell death by counting the cells using trypan blue and by flow cytometry using 4′,6-diamidino-2-phenylindole dihydrochloride (DAPI).
Blood samples were also collected from healthy volunteers through the local Swiss blood bank. Fresh peripheral blood mononuclear cells were purified by density gradient centrifugation (Isopaque-Ficoll) within 2 h after blood sampling. Cells were cryopreserved in RPMI medium 1640 supplemented with 40% FCS and 10% DMSO.
Then, 2 × 10^4 total PBMC per well (96-well plate) was cultured with or without the HVEM (14–39) peptide at 5 or 0.1 mg/mL in RPMI 1640 supplemented with 10% FCS, 1% penicillin-streptomycin, and 25 mM HEPES. After 6 and 24 h at 37 °C, cells were harvested counted with Trypan blue exclusion. Cells were then labeled with DAPI and analyzed by flow cytometry to determine the percentage of cell death. […]
medium at time points (from the bottom) = 0h, 2h, 3h, 6h and 24h (gradient 5-100%B in 60 […]
Figure S6. 293T cells expressing human BTLA were incubated with different concentrations (0.1, 1 and 5 mg/ml) of peptide HVEM(14-39) prior labeling with rhHVEM-Fc and AF647-conjugated anti-human IgG antibody.
Fig. S7. Cytotoxic assay. PBMC from 3 healthy donors were incubated with HVEM(14-39) peptide at 0, 0.1 and 5 mg/ml in culture medium for 6 and 24h. Cells were subsequently counted and labelled with a dead cell marker. […]
A general note: A flow cytometer gives signals particle by particle.

The subject of data set [3] is 293T cells. Briefly: Toxicity on 293T cells (data not shown). The settings on record: 5 mg/mL. The class given is cell-based, human.
Text: as §1

Data set [4] concerns the target T2, BTLA/HVEM binding on 293T cells expressing human BTLA (Homo sapiens, UniProt Q7Z6A9).
T2 construct: Krummenacher, University of Pennsylvania; host or cells: 293T
Briefly: BTLA/HVEM interaction cell line assay (HVEM-Fc binding to 293T cells expressing BTLA, flow cytometry). The settings on record: 293T cells expressing human BTLA preincubated with peptide 5 mg/mL, 1 h, 4 °C in PBS, then HVEM-Fc 8 μg/mL and AF647 anti-human IgG. The format is cell-based. As to the method: Figure 7 HVEM (14–39) peptide blocks BTLA/HVEM binding. 293T cells expressing human BTLA were incubated with peptides (5 mg/mL) prior to labeling with HVEM-Fc and AF647-conjugated anti-human IgG antibody. The blocking capacity of the HVEM (14–39) peptide was first compared to (A) a scrambled (Ac-[…]-NH2) peptide or (B) to variant peptides (Table S2).
Cells (293T) expressing BTLA (a generous gift from Dr. C. Krummenacher, University of Pennsylvania, USA) were maintained in culture with RPMI 10% FCS supplemented with 0.2 mg/mL hygromycin B. The cells (2 × 10^5) were incubated with HVEM-Fc (at 8 μg/mL in PBS containing 0.5% BSA) for 30 min at 4 °C. The cells were then washed and incubated with goat anti-human Fc conjugated with AF647 for 20 min at 4 °C in PBS containing 0.5% BSA (Jackson ImmunoResearch, #109–606–170). Inhibition of BTLA/HVEM binding by different peptides was assessed after preincubating the cells with different concentrations of the peptide (5, 1, and 0.1 mg/mL) for 1 h at 4 °C in PBS. After washing in PBS, the cells were stained for 20 min at 4 °C with an amine reactive dye (aqua live/dead stain kit, from Life Technologies, L34957) for dead cell exclusion. BTLA expression was controlled by anti-BTLA APC-conjugated antibody (Biolegend, #344510). Maximum inhibition of binding was determined by adding anti-BTLA7.1 antibody (2 μg/mL) for 1 h at 4 °C, before adding HVEM-Fc. Sample acquisition was performed on a Gallios Flow Cytometer (Beckman Coulter), and data were analyzed using FlowJo Software (TreeStar).

The target in data set [5] is HVEM 1-103 (Homo sapiens) (UniProt Q92956). Description: SPR. The settings on record: cited from earlier work.
Sequence of HVEM 1-103 (Homo sapiens) (Q92956 1-103): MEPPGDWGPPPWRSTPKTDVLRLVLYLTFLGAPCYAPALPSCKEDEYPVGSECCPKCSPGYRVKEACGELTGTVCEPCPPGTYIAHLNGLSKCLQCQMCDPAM
Data set [6] has as its target T3, Recombinant human BTLA-Fc (human, UniProt Q7Z6A9 31-157).
T3 construct: also called BTLA-Fc protein; immobilized BTLA protein; source: gift from Prof; D. Olive (recombinant)
T3 sequence (looked up): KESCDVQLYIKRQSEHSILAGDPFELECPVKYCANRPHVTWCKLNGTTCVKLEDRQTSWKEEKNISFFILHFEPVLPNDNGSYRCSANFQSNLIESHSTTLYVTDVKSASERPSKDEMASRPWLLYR
Briefly: affinity chromatography on a microcolumn, fractions read by MALDI-TOF MS; BTLA-Fc immobilised in a microcolumn; peptide incubated, excess removed, complex dissociated; supernatant, last wash and elution analysed by mass spectrometry. The settings on record: both partners purified.

The subject of data set [7] is BTLA. The settings on record: SPR, HVEM protein binding to BTLA; unit not given; cited from earlier work. The text has this:
Table 1 Rate constants: k1, k−1 and KD for the BTLA/HVEM and BTLA/HVEM (14–39) complexes determined using SPR and molecular dynamics simulation. […] SPR provided more accurate data. […] KD and affinity are inversely related, which means that the lower the KD value, the higher the affinity of the molecules. The HVEM (14–39) peptide binds and d ...

Positions of bridges follow the written chain, without caps; N, C: chain ends. Residues, ends and D or L forms follow the SMILES beside them.

T2 sequence (Q7Z6A9 31-289): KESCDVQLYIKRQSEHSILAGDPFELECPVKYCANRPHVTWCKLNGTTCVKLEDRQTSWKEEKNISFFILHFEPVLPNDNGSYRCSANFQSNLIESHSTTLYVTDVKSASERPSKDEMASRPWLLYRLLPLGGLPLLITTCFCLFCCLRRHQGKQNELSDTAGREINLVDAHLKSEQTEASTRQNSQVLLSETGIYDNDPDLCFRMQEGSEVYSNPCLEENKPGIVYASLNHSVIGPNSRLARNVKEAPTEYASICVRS

On to `CC(=O)N[C@@H](CCC(=O)O)C(=O)N[C@@H](CO)C(=O)N[C@H]1CSSC[C@@H]2NC(=O)[C@H](C)NC(=O)[C@H](CCC(=O)O)NC(=O)[C@H](CCCCN)NC(=O)[C@H](C(C)C)NC(=O)[C@H](CCCNC(=N)N)NC(=O)[C@H](Cc3ccc(O)cc3)NC(=O)CNC(=O)[C@@H]3CCCN3C(=O)[C@H](CO)NC(=O)[C@H](CSSC[C@@H](C(=O)N[C@@H](CCC(=O)O)C(=O)N3CCC[C@H]3C(N)=O)NC(=O)[C@H](C(C)C)NC(=O)[C@H]([C@@H](C)O)NC(=O)CNC(=O)[C@H]([C@@H](C)O)NC(=O)[C@H](CC(C)C)NC(=O)[C@H](CCC(=O)O)NC(=O)CNC2=O)NC(=O)[C@H](CCCCN)NC(=O)[C@@H]2CCCN2C1=O` [HVEM (14–39)] (Ac-ESCPKCSPGYRVKEACGELTGTVCEP-NH2; disulfide 3-16, 6-24), for which the kon in data set [1] (SPR Biacore T200, peptide extended by five Gly and biotin at N-terminus on streptavidin chip SA (~1100 RU), BTLA 0-15 µM, HBS-EP pH 7.4, mean of four measurements, read-out: k1, association rate constant) was determined as 76400 M⁻¹ s⁻¹. In addition, the Kd in data set [1] (SPR, Table S1 measurement No 1) was 13 nM; in data set [1] (SPR, Table S1 measurement No 2), 149 nM; in data set [1] (SPR, Table S1 measurement No 3), 217 nM; in data set [1] (SPR, Table S1 measurement No 4), 30.6 nM; in data set [1] (SPR, biotin-Gly5 peptide on streptavidin chip, BTLA 0-15 µM, HBS-EP pH 7.4, mean of four measurements), 102 nM. Besides, the koff in data set [1] (SPR, biotin-Gly5 peptide on streptavidin chip, BTLA 0-15 µM, HBS-EP pH 7.4, mean of four measurements, read-out: k−1, dissociation rate constant) was 0.00332 s⁻¹. In data set [2], the “cell death of PBMC” value is reported as “did not find any significant increase in cell death”. The “toxicity on 293T cells” value in data set [3] is reported as “did not observe any toxicity”.

As to `CC(=O)N[C@@H](CCC(=O)O)C(=O)N[C@@H](CO)C(=O)N[C@H]1CSSC[C@@H](C(=O)N[C@@H](CO)C(=O)N2CCC[C@H]2C(=O)NCC(=O)N[C@@H](Cc2ccc(O)cc2)C(=O)N[C@@H](CCCNC(=N)N)C(=O)N[C@H](C(=O)N[C@@H](CCCCN)C(=O)N[C@@H](CCC(=O)O)C(=O)N[C@@H](C)C(=O)N[C@H]2CSSC[C@@H](C(=O)N[C@@H](CCC(=O)O)C(=O)N3CCC[C@H]3C(N)=O)NC(=O)[C@H](C(C)C)NC(=O)[C@H]([C@@H](C)O)NC(=O)CNC(=O)[C@H]([C@@H](C)O)NC(=O)[C@H](CC(C)C)NC(=O)[C@H](CCC(=O)O)NC(=O)CNC2=O)C(C)C)NC(=O)[C@H](CCCCN)NC(=O)[C@@H]2CCCN2C1=O` [HVEM (14–39)^C16–C19, ^C29–C37] (Ac-ESCPKCSPGYRVKEACGELTGTVCEP-NH2; disulfide 3-6, 16-24), the “blocking of HVEM-Fc binding to BTLA (geometric fluorescence intensity, GMFI)” value (from here on “blocking of HVEM-Fc binding to BTLA”) in data set [4] was “slight decrease in the blocking capacity”.

For `CC(=O)N[C@@H](CCC(=O)O)C(=O)N[C@@H](CO)C(=O)N[C@H]1CSSC[C@@H](C(=O)N[C@@H](CCC(=O)O)C(=O)N2CCC[C@H]2C(N)=O)NC(=O)[C@H](C(C)C)NC(=O)[C@H]([C@@H](C)O)NC(=O)CNC(=O)[C@H]([C@@H](C)O)NC(=O)[C@H](CC(C)C)NC(=O)[C@H](CCC(=O)O)NC(=O)CNC(=O)[C@@H]2CSSC[C@H](NC(=O)[C@H](CCCCN)NC(=O)[C@@H]3CCCN3C1=O)C(=O)N[C@@H](CO)C(=O)N1CCC[C@H]1C(=O)NCC(=O)N[C@@H](Cc1ccc(O)cc1)C(=O)N[C@@H](CCCNC(=N)N)C(=O)N[C@@H](C(C)C)C(=O)N[C@@H](CCCCN)C(=O)N[C@@H](CCC(=O)O)C(=O)N[C@@H](C)C(=O)N2` [HVEM (14–39)^C16–C37, ^C19–C29] (Ac-ESCPKCSPGYRVKEACGELTGTVCEP-NH2; disulfide 3-24, 6-16), the “blocking of HVEM-Fc binding to BTLA” value in data set [4] was “slight decrease in the blocking capacity”.

Take “Ac-ESSPKSSPGYRVKEASGELTGTVSEP-NH2 [HVEM (14–39)^C16,19,29,37S]”: the “blocking of HVEM-Fc binding to BTLA” value in data set [4] is reported as “blocking capacity was completely lost”.

Take BTLA (from UniProt Q7Z6A9): the Kd in data set [5] is 250 nM.

B1: HVEM (14–39) peptide (peptide, UniProt Q92956 52-77, looked up)
peptide: Ac-ESCPKCSPGYRVKEACGELTGTVCEP-NH2
modifications: disulfide 3-16, 6-24
notes: herpes virus entry mediator (HVEM), residues 14-39 of the numbering of the crystal structure PDB 2AW2, Cys15 replaced by serine; A C-terminal amide is likely (the scrambled peptide is printed as Ac-...-NH2); also called native HVEM (14–39) peptide; native peptide; source: synthetic peptide (solid-phase, Fmoc/tBu, RP-HPLC purified, disulfides formed stepwise)
For the molecule B1, in data set [6], the binding result is reported as “binds”.

B2: HVEM: herpes virus entry mediator, transmembrane glycoprotein of the TNFR superfamily, ligand of BTLA (protein)
chain: LPSCKEDEYPVGSECCPKCSPGYRVKEACGELTGTVCEPCPPGTYIAHLNGLSKCLQCQMCDPAMGLRASRNCSRTENAVCGCSPGHFCIVQDGDHCAACRAYATSSPGQRVQKGGTESQDTLCQNCPPGTFSPNGTLEECQHQTKCSWLVTKAGAGTSSSHWV
modifications: left off: Fc (detected with anti-human Fc/IgG), end not stated, kept
notes: herpes virus entry mediator, transmembrane glycoprotein of the TNFR superfamily, ligand of BTLA
For the molecule B2, in data set [7], the “k−1” value was 0.12.
